Experimental data: ChEMBL document CHEMBL3864146, “5-Alkyloxytryptamines are membrane-targeting, broad-spectrum antibiotics” (Bioorg Med Chem Lett, 2016)
Converted amounts (≈) assume the structure as drawn.

Columns and labels:
[1] = test system: Escherichia coli; assay: Antibacterial activity against Escherichia coli BW25113 after 16 to 18 hrs by micro-dilution method; format: functional
[2] = test system: Escherichia coli; assay: Antibacterial activity against tolC-deficient Escherichia coli BW25113 after 16 to 18 hrs by micro-dilution method; format: functional
[3] = test system: Bacillus subtilis; assay: Antibacterial activity against Bacillus subtilis 168 after 16 to 18 hrs by micro-dilution method; format: functional; conditions: subsp. subtilis str. 168
[4] = test system: Acinetobacter baumannii; assay: Antibacterial activity against Acinetobacter baumannii after 16 to 18 hrs by micro-dilution method; format: functional
[5] = test system: Staphylococcus aureus; assay: Antibacterial activity against Staphylococcus aureus after 16 to 18 hrs by micro-dilution method; format: functional
[6] = test system: Pseudomonas aeruginosa; assay: Antibacterial activity against Pseudomonas aeruginosa after 16 to 18 hrs by micro-dilution method; format: functional
[7] = test system: Salmonella typhimurium; assay: Antibacterial activity against Salmonella typhimurium after 16 to 18 hrs by micro-dilution method; format: functional, Salmonella enterica subsp. enterica serovar Typhimurium; conditions: Salmonella enterica
[8] = test system: Vibrio cholerae; assay: Antibacterial activity against Vibrio cholerae after 16 to 18 hrs by micro-dilution method; format: functional
[9] = test system: Shigella boydii; assay: Antibacterial activity against Shigella boydii after 16 to 18 hrs by micro-dilution method; format: functional
[10] = test system: Klebsiella pneumoniae; assay: Antibacterial activity against Klebsiella pneumoniae after 16 to 18 hrs by micro-dilution method; format: functional
[11] = test system: Klebsiella aerogenes; assay: Antibacterial activity against Enterobacter aerogenes after 16 to 18 hrs by micro-dilution method; format: functional
[12] = test system: Edwardsiella tarda; assay: Antibacterial activity against Edwardsiella tarda after 16 to 18 hrs by micro-dilution method; format: functional
[13] = test system: Morganella morganii; assay: Antibacterial activity against Morganella morganii after 16 to 18 hrs by micro-dilution method; format: functional

| Structure (SMILES) | MIC [1] | MIC [2] | MIC [3] | MIC [4] | MIC [5] | MIC [6] | MIC [7] | MIC [8] | MIC [9] | MIC [10] | MIC [11] | MIC [12] | MIC [13] |
| --- | --- | --- | --- | --- | --- | --- | --- | --- | --- | --- | --- | --- | --- |
| COc1ccc2c(CCN)c[nH]c2c1 | > 60.8 µg/mL | > 60.8 µg/mL | > 60.8 µg/mL | > 60.8 µg/mL | > 60.8 µg/mL | – | – | – | – | – | – | – | – |
| CCCCCCCCCOc1cccc(CN)c1 | 9.4 µg/mL (≈ 37.7 µM) | 4.7 µg/mL (≈ 18.8 µM) | 4.7 µg/mL (≈ 18.8 µM) | 9.4 µg/mL (≈ 37.7 µM) | 9.4 µg/mL (≈ 37.7 µM) | > 75 µg/mL | 4.7 µg/mL (≈ 18.8 µM) | 4.7 µg/mL (≈ 18.8 µM) | 9.4 µg/mL (≈ 37.7 µM) | 9.4 µg/mL (≈ 37.7 µM) | 9.4 µg/mL (≈ 37.7 µM) | 19 µg/mL (≈ 76.2 µM) | 38 µg/mL (≈ 152 µM) |
| CCCCCCCCCOc1ccc2[nH]cc(CC[N+](C)(C)C)c2c1 | 52 µg/mL | 6.5 µg/mL | 52 µg/mL | 52 µg/mL | 6.5 µg/mL | 52 µg/mL | 26 µg/mL | > 104 µg/mL | 26 µg/mL | 26 µg/mL | 52 µg/mL | 26 µg/mL | > 104 µg/mL |
| CCCCCCCCCOc1ccc(CCN)cc1 | 5.3 µg/mL (≈ 20.1 µM) | 1.3 µg/mL (≈ 4.93 µM) | 0.66 µg/mL (≈ 2.51 µM) | 5.3 µg/mL (≈ 20.1 µM) | 2.6 µg/mL (≈ 9.87 µM) | > 84 µg/mL | 5.3 µg/mL (≈ 20.1 µM) | 5.3 µg/mL (≈ 20.1 µM) | 5.3 µg/mL (≈ 20.1 µM) | 5.3 µg/mL (≈ 20.1 µM) | 11 µg/mL (≈ 41.8 µM) | > 84 µg/mL | > 84 µg/mL |
